According to ChEMBL document CHEMBL5518242, “Discovery and Optimization of Novel Nonbile Acid FXR Agonists as Preclinical Candidates for the Treatment of Inflammatory Bowel Disease” (J Med Chem, 2024):

Details: human, caco-2
Description: Permeability in human Caco-2 cells

- permeability: Permeable
Structure (SMILES): Cn1cc(C(=O)O)c2ccc(N3CCC(OCc4c(-c5c(Cl)cccc5Cl)noc4C4CC4)CC3)cc21 [TERN-101]
